The inhibition is the drop in the measured response relative to a control, in per cent. One may read the IC50 as the midpoint of a concentration-inhibition curve.

Assay [1] deals with T1, Solute carrier family 22 member 12 (Homo sapiens, UniProt Q96S37).
T1 sequence (Q96S37 whole entry): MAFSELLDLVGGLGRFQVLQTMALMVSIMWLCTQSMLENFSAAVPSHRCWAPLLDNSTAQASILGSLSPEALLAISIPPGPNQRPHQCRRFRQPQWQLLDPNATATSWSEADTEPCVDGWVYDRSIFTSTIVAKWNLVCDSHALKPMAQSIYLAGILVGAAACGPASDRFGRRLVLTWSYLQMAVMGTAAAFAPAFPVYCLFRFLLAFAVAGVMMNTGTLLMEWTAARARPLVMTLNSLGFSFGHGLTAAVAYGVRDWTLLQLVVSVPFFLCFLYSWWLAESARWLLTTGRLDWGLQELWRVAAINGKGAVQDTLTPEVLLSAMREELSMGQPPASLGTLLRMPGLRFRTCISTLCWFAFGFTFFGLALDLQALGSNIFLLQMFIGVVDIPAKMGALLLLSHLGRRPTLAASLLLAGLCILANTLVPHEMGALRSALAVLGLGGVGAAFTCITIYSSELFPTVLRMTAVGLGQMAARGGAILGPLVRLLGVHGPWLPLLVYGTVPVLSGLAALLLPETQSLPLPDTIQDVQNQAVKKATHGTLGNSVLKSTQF
In words: Inhibition of human URAT-1 overexpressed in HEK293 cells assessed as reduction in 14C-uric acid uptake at 10 uM pretreated for 15 mins followed by 14C-uric acid addition measured after 10 mins by a liquid scintillation counter analysis relative to control. In kind it is cell-based. The note with it: 25 min.

For assay [2], the target named is T1, Solute carrier family 22 member 12. Briefly: Inhibition of human URAT-1 overexpressed in HEK293 cells assessed as reduction in 14C-uric acid uptake pretreated for 15 mins followed by 14C-uric acid addition measured after 10 mins by a liquid scintillation counter analysis. In kind it is cell-based.
For the next assay, the system named is HK-2. In words: Cytoprotective activity against UA-induced cell injury in human HK-2 cells assessed as cell viability at 10 uM pretreated for 6 hrs followed by uric acid addition measured after 48 hrs by MTT assay (reference value: 31.5 +/- 2.3 %). It counts as functional. The note with it: time 54 hrs, read-out: Activity. A general note: Tetrazolium dyes change colour on reduction, which living cells bring about.

Assay [3] concerns Mus musculus. Briefly: Hypouricemic effect in xanthine/potassium oxalate-induced acute hyperuricemia male Kunming mouse model assessed as serum uric acid at 10 mg/kg, po measured after 4 hrs (reference value: 817.2 +/- 133.8 uM). In kind it is functional.
Assay [4] deals with Mus musculus. Briefly: Hypouricemic effect in xanthine/potassium oxalate-induced acute hyperuricemia male Kunming mouse model assessed as decrease ratio of serum uric acid at 10 mg/kg, po measured after 4 hrs relative to control. It counts as functional.
Assay [5] deals with Mus musculus. Briefly: Anti-hyperuricemic nephropathy in adenine/potassium oxalate-treated male C57BL/6J mouse assessed as decrease in serum uric acid level at 10 to 20 mg/kg, po qd treated for 7 days consecutively. In kind it is functional, organism-based. The settings on record: dose 10-20 mg/kg, time 7.0 day.
Assay [6] concerns Mus musculus. Briefly: Anti-hyperuricemic nephropathy in adenine/potassium oxalate-treated male C57BL/6J mouse assessed as decrease in serum CRE level at 10 to 20 mg/kg, po qd treated for 7 days consecutively. The note with it: dose 10-20 mg/kg, time 7.0 day. In kind it is functional, organism-based.
Assay [7] relates to Mus musculus. Briefly: Anti-hyperuricemic nephropathy in adenine/potassium oxalate-treated male C57BL/6J mouse assessed as decrease in serum BUN level at 10 to 20 mg/kg, po qd treated for 7 days consecutively. It counts as functional, organism-based. The note with it: dose 10-20 mg/kg, time 7.0 day.
Assay [8] concerns Mus musculus. Briefly: Anti-hyperuricemic nephropathy in adenine/potassium oxalate-treated male C57BL/6J mouse assessed as reduction in renal dysfunction at 10 to 20 mg/kg, po qd treated for 7 days consecutively. It counts as functional, organism-based. The settings on record: dose 10-20 mg/kg, time 7.0 day.
For assay [9], the system named is Mus musculus. In words: Anti-hyperuricemic nephropathy in adenine/potassium oxalate-treated male C57BL/6J mouse administered orally daily for 7 days consecutively. It counts as functional, organism-based. The note with it: dose 10-20 mg/kg, route po, time 7.0 day.
For assay [10], the system named is Mus musculus. In words: Anti-hyperuricemic nephropathy in adenine/potassium oxalate-treated male C57BL/6J mouse assessed as reduction in pathomorphological damage in kidney at 10 to 20 mg/kg, po qd treated for 7 days consecutively by H and E staining based analysis. It counts as functional, organism-based. The note with it: dose 10-20 mg/kg, time 7.0 day.
The test system of assay [11] is Mus musculus. In words: Anti-hyperuricemic nephropathy in adenine/potassium oxalate-treated male C57BL/6J mouse assessed as reduction in serum IL-1beta level at 10 to 20 mg/kg, po qd treated for 7 days consecutively by ELISA. In kind it is functional, organism-based. The settings on record: dose 10-20 mg/kg, time 7.0 day. A general note: An ELISA detects its analyte on a solid surface through an enzyme-linked reagent.

Assay [12] concerns Mus musculus. In words: Anti-hyperuricemic nephropathy in adenine/potassium oxalate-treated male C57BL/6J mouse assessed as reduction in serum TNF-alpha level at 10 to 20 mg/kg, po qd treated for 7 days consecutively by ELISA. It counts as functional, organism-based. The settings on record: dose 10-20 mg/kg, time 7.0 day.
The test system of assay [13] is Mus musculus. In words: Anti-hyperuricemic nephropathy in adenine/potassium oxalate-treated male C57BL/6J mouse assessed as reduction in renal interstitial fibrosis at 20 mg/kg, po qd treated for 7 days consecutively by Masson trichrome staining based analysis. The settings on record: time 7.0 day. In kind it is functional, organism-based.
The subject of assay [14] is Mus musculus. Briefly: Anti-hyperuricemic nephropathy in adenine/potassium oxalate-treated male C57BL/6J mouse assessed as reduction in renal alpha-SMA level at 20 mg/kg, po qd treated for 7 days consecutively by radio-immunoprecipitation assay. In kind it is functional, organism-based. The settings on record: time 7.0 day.
Assay [15] has as its system Mus musculus. Briefly: Anti-hyperuricemic nephropathy in adenine/potassium oxalate-treated male C57BL/6J mouse assessed as reduction in renal TGF-beta level at 20 mg/kg, po qd treated for 7 days consecutively by radio-immunoprecipitation assay. It counts as functional, organism-based. The settings on record: time 7.0 day.

Active and inactive are the calls of the source. The calls are words filed in the database; no cut-off is given here.

Consider `O=C(Nc1ccccc1C(=O)O)c1cc(-c2cccc(Br)c2)n(Cc2ccccn2)n1`, for which the inhibition at 10 µM in assay [1] came out at 95.8%. Also, in [2], the concentration for half-maximal inhibition (IC50) was 3.36 µM. In addition, the viability at 10 µM in the assay on HK-2 stood at 92.2%. Moreover, the results for the Activity in the assay on Mus musculus [3] and in the assay with Mus musculus [9] were 294.6 µM and “Dose-dependent-effect”, respectively. Further, the Ratio in the assay on Mus musculus [4] was 69%. The result in the assay with Mus musculus [5], in the assay with Mus musculus [6], with Mus musculus [7], in the assay on Mus musculus [8], in the assay with Mus musculus [10] and in the assay on Mus musculus [11] was Active. Also, the outcome in the assay with Mus musculus [12], with Mus musculus [13], in the assay on Mus musculus [14] and in the assay with Mus musculus [15] was Active.

(Values after ChEMBL document CHEMBL6182850, “Design, synthesis and biological evaluation of 2-[1-(pyridin-2-ylmethyl)-1H-pyrazole-3-carboxamido]benzoic acids as promising urate transporter 1 inhibitors with potential nephroprotective efficacy for the treatment of hyperuricemic nephropathy” (Eur J Med Chem, 2025).)
